One assay relates to C. difficile VPI 10463. The assay is described as follows: C. difficile mice model (spore challenge), survival. Type of assay: in vivo. As to conditions: C57BL/6 mice, 1×10^5 C. difficile VPI10463 spores by gavage, daily injection. On the procedure: To further determine the in vivo protective effect of glycyrrhizin on mice, a C. difficile mice model was established particularly the one as described in Guo, S. et al, (2015), Vaccine 33, 1586-1595. Briefly, C57BL/6 mice were given water mixed with a mixture of kanamycin (Sigma, MO) (0.4×10^−3 mg/L), gentamicin (Sigma, MO) (0.035×10^−3 mg/L), colistin (Sigma, MO) (850 U/mL), metronidazole (Sigma, MO) (0.215×10^−3 mg/L), and vancomycin (Sigma, MO) (0.045×10^−3 mg/L) for 3 days. All mice were then provided with regular autoclaved water for 2 days and administered with a single dose of clindamycin (Sigma, MO) (10 mg/kg) intraperitoneally 1 day before the C. difficile challenge. Mice were injected with glycyrrhizin daily on or before the day of C. difficile VPI 10463 spores challenge. All mice were then challenged with 1×10^5 of prepared C. difficile (strain VPI10463) spores by gavage feeding. The mice were intensively monitored daily after challenge for the presence and severity of diarrhea and other symptoms of illness or mortality. Body weight was measured once a day at the same time each day. Mice judged to be in a moribund state were euthanized by carbon dioxide.

In assay [1] the test system is TcdB-induced disruption in colon epithelium. The assay is described as follows: Mice colon ligation loop model with TcdB injection, H&E histological scoring. Type of assay: in vivo, C57BL/6 mice. Conditions: intraperitoneal pre-treatment daily for two days, 10 μg TcdB in loop, 8 h. On the procedure: The inventors used a mice colon ligation loop model to mimic C. difficile infection as TcdB is released into the lumen of the colon during C. difficile infection. All procedures were performed according to the animal protocol approved by the Cornell University IACUC (2017-0112). 6-8 weeks old of C57BL/6 mice were administrated with glycyrrhizin acid (50 mg/kg) daily via intraperitoneal injection two days before surgery. After overnight fasting, mice were anaesthetized and dissected via a midline laparotomy. A length of about 2 cm colon tissue was ligated and either saline or TcdB was injected into ligated loop for treatment. Mice were sutured and allowed to recover. After 8 hours, mice were euthanized and the ligated colon segments were excised and subjected to H&E staining. HE scoring was blindly assessed by a pathologist.

As for `CC1(C)[C@@H](O[C@H]2O[C@H](C(=O)O)[C@@H](O)[C@H](O)[C@H]2O[C@@H]2O[C@H](C(=O)O)[C@@H](O)[C@H](O)[C@H]2O)CC[C@]2(C)[C@H]3C(=O)C=C4[C@@H]5C[C@@](C)(C(=O)O)CC[C@]5(C)CC[C@@]4(C)[C@]3(C)CC[C@@H]12` [glycyrrhizin], the “survival at the end of experiment” value with C. difficile VPI 10463 was determined as 100%. The “epithelial layer damage of ligated colon tissue (histology)” value in assay [1] is listed as “less epithelial layer damages”.

These data come from US11318154B2 (priority 2019, dated 2022).
